Data from patent US20210353579A1, “HIGH PENETRATION COMPOSITIONS AND USES THEREOF” (Techfields Pharma Co., Ltd., priority 2006, published 2021).

What was measured:
[1] = tested on: rats (SLAC/GK, type 2 diabetes); assay: Blood glucose in type 2 diabetes rats, transdermal; type: in vivo, rat; conditions: diabetic rats (SLAC/GK)
Outline: (§1)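 GK type 2 diabetic rats (n=7) received the HPPs transdermally on a shaved ~1.5 cm^2 area of the back, at a dose equal to 20 mg/kg of NSAIAs, once daily for 5 weeks. Non-fasting blood glucose was measured every 3 days at 3 pm from week 2 to week 5, and blood lipids at the end of week 5.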

[2] = tested on: rats (SLAC/GK, type 2 diabetes); assay: Blood lipid in type 2 diabetes rats, transdermal; type: in vivo, rat
Outline: as §1

[3] = tested on: rats (SLAC/GK, type 2 diabetes); assay: Blood glucose in type 2 diabetes rats, oral with food; type: in vivo, rat
Outline: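 Compounds (dosed equivalent to 20 mg/kg of NSAIAs) mixed in food and given orally daily for 5 weeks to rats (n=7). Non-fasting blood glucose measured every 3 days at 3 pm from week 2 to week 5; blood lipids measured at end of week 5.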

[4] = tested on: mice (SLAC:NOD-IDDM, type 1 diabetes); assay: Blood glucose in type 1 diabetes mice, transdermal; type: in vivo, mouse
Outline: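 NOD-IDDM type 1 diabetic mice (n=7) received prodrug transdermally on shaved back skin (~1.5 cm²), at a dose equivalent to 30 mg/kg NSAIA, once daily for 7 weeks. Non-fasted blood glucose was measured every 3 days at 3 pm from week 4 to week 7.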

mice (MRL/LPR) = assay: Anti-lupus erythematosus activity; type: in vivo, mouse; conditions: 30 mg/kg topically twice per day, after 6 weeks
normal rats [5] = assay: Blood glucose in normal rats, transdermal; type: in vivo, rat
Outline: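 Compounds equivalent to 20 mg/kg NSAIA were applied transdermally to a shaved ~1.5 cm^2 area of rat backs once daily at 8 am for 5 weeks (n=7). Non-fasting blood glucose was measured every 3 days at 3 pm from week 2 to week 5, and blood lipids at the end of week 5.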

normal rats [6] = assay: Blood glucose in normal rats, oral with food; type: in vivo, rat
[7] = baseline, equal to 20 mg/kg of NSAIAs
[8] = end of the fifth week, equal to 20 mg/kg of NSAIAs once per day

## CC(=O)Oc1ccccc1C(=O)O.CCN(CC)CCOC(=O)c1ccccc1OC(C)=O [P-1, diethylaminoethyl acetylsalicylate.acetylsalicylic acid salt]
[1]; average second to fifth week, no fasting, equal to 20 mg/kg of NSAIAs once per day for 5 weeks
  Blood glucose, Average: 6.5 ± 1 mmol/L
[1]; baseline, equal to 20 mg/kg of NSAIAs once per day
  Blood glucose, Baseline: 16.1 ± 3 mmol/L
[2]; [7]
  Cholesterol (HDL), Baseline: 1.4 ± 0.2 mmol/L
  Cholesterol (total), Baseline: 7.7 ± 0.4 mmol/L
  Triglycerides, Baseline: 5.4 ± 0.5 mmol/L
[2]; [8]
  Cholesterol (HDL), Average: 1.5 ± 0.2 mmol/L
  Cholesterol (total), Average: 4.0 ± 0.3 mmol/L
  Triglycerides, Average: 1.5 ± 0.2 mmol/L
[3]; average second to fifth week, no fasting, equal to 20 mg/kg of NSAIAs every day for 5 weeks
  Blood glucose, Diabetic rats, Average: 6.5 ± 1 mmol/L
[3]; [7]
  Blood glucose, Diabetic rats, Baseline: 16.5 ± 3 mmol/L
[4]; average fourth to seventh week, no fasting, equal to 30 mg/kg of NSAIAs once per day for 7 weeks
  Blood glucose, Average: 6.5 ± 1 mmol/L
[4]; baseline, equal to 30 mg/kg of NSAIAs
  Blood glucose, Baseline: 26.1 ± 5 mmol/L
Mice (MRL/LPR)
  skin lesions and lupus nephritis: all skin lesions and lupus nephritis were resolved
Normal rats [5]; normal rats (second Average line of Table 24), average second to fifth week, equal to 20 mg/kg of NSAIAs once per day
  Blood glucose, Average: 6.3 ± 1 mmol/L
Normal rats [5]; normal rats (second Baseline line of Table 24), baseline, equal to 20 mg/kg of NSAIAs
  Blood glucose, Baseline: 6.4 ± 1 mmol/L
Normal rats [6]; average second to fifth week, equal to 20 mg/kg of NSAIAs every day
  Blood glucose, Normal rats, Average: 6.5 ± 1 mmol/L
Normal rats [6]; [7]
  Blood glucose, Normal rats, Baseline: 6.3 ± 1 mmol/L
